In patent publication US12421269B2, “SGLT2/DPP4 inhibitor and application thereof” (CGeneTech (Suzhou, China) CO., Ltd., priority 2019, dated 2025):
Marks after values point to notes of the source that are not given here.

Columns and labels:
SD Rat = experiment: Oral glucose tolerance (OGTT) in rats; format: in vivo; conditions: male SD rats, single gavage dose, Canagliflozin 3 mg/kg, test compound 10 mg/kg
Procedure: The animals will be acclimatized in the animal room for 1 week after arrival at the facility.
The animals are fasted for 16 hours in the metabolic cage and given the drug or solvent (5 mL/kg) according to the table above, followed immediately by 50% glucose solution (2 g/kg, 4 mL/kg).
After 1 hour of glucose administration, the animals resumed feeding, and blood samples were collected at 0 min, 20 min, 40 min, 60 min, 90 min and 120 min for blood glucose measurement; urine at 0 to 24 hours was used for urinary glucose (mg/200 g) and urine volume test, respectively.
All values were expressed as mean values. Statistical analysis was performed using Graphpad Prism 6 single factor analysis of variance Tukey's multiple comparison test. The p-value less than 0.05 was considered statistically significant.

Human-SGLT1 = biological target: T1, Human-SGLT1 (Homo sapiens, UniProt P13866); experiment: SGLT1 glucose transport assay ([14C]-labeled glucose uptake); format: cell-based; conditions: cells stably expressing Human-SGLT1, 37° C., 2 hours
T1 sequence (P13866 1-664): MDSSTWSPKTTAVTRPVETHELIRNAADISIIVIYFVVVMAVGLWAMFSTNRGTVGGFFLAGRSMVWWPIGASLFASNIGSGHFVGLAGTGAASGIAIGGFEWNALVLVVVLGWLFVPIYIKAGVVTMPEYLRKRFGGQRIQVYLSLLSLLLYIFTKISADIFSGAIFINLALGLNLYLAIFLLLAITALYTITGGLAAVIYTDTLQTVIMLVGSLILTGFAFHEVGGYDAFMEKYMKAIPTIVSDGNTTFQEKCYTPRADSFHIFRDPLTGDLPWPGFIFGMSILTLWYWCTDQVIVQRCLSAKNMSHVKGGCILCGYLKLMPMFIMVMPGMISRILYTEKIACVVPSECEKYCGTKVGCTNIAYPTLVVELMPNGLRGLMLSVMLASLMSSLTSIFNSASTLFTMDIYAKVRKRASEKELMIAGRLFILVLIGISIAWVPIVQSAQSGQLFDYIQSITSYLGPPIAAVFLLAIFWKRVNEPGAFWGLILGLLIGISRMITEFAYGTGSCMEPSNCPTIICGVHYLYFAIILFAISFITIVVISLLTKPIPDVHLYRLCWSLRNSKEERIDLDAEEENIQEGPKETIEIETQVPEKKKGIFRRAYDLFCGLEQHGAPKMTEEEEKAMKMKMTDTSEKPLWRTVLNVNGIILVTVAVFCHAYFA
Procedure: To test the effect of compounds on the glucose transport activity of SGLT1 transporters by measuring the amount of [^14C]-labeled glucose entering highly expressed Human-SGLT1 cells.
The cells stably expressing Human-SGLT1 used for the experiments were constructed by WuXi AppTec Shanghai. The SGLT1 cells were plated in Cytostar-T (PerkinElmer) 96-well cell culture plates and cultured overnight at 5% CO2, 37° C.
(§1) Experimental buffer: 10 mM 4-hydroxyethylpiperazine ethanesulfonic acid (HEPES), 1.2 mM magnesium chloride (MgCl2), 4.7 mM potassium chloride (KCl), 2.2 mM calcium chloride (CaCl2) and 120 mM sodium chloride (NaCl).
The compounds were diluted with 100% dimethyl sulfoxide (DMSO) at a starting concentration of 1 mM, 8 points of 5-fold serial gradient dilution was made.
3 μM [^14C]-labeled methyl α-D-glucopyranoside (Methyl a-D-glucopyranosid) was prepared with experimental buffer.
Cells were treated with 49 μL of experimental buffer, 1 μL of gradient-diluted compound and 50 μL of 3 μM [^14C]-isotope-labeled glucose solution at 37° C. for 2 hours.
Readings were taken with an isotope detector (Micro beta Reader).
The data were calculated by GraphPad Prism 5.0 software using the formula: log(inhibitor) vs. response—Variable slope to obtain the IC50 values of the tested compounds, and the experimental results are shown in Table 5.

Human-SGLT2 = biological target: T2, Human-SGLT2 (Homo sapiens, UniProt P31639); experiment: SGLT2 glucose transport assay ([14C]-labeled glucose uptake); format: cell-based; conditions: cells stably expressing Human-SGLT2, 37° C., 2 hours
T2 sequence (P31639 1-672): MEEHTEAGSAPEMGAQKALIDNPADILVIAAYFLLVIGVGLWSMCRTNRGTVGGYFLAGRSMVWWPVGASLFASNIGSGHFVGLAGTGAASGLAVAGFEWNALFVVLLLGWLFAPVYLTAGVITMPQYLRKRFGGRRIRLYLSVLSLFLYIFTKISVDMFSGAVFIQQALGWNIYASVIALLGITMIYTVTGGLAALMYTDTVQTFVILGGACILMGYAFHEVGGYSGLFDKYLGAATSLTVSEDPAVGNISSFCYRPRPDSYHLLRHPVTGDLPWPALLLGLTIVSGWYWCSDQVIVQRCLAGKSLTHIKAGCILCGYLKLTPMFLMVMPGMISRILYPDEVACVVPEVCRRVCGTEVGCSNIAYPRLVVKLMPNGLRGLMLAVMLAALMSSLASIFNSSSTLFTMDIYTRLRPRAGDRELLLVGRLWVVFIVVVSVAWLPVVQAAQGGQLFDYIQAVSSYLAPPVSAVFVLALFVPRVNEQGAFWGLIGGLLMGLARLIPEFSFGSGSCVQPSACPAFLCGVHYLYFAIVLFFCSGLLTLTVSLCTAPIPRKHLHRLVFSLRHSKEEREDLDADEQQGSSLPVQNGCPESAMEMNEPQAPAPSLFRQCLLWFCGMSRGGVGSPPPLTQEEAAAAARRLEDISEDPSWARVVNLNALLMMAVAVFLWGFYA
Procedure: To test the effect of compounds on the glucose transport activity of SGLT2 transporters by measuring the amount of [^14C]-labeled glucose entering highly expressed Human-SGLT2 cells.
The cells stably expressing Human-SGLT2 used for the experiments were constructed by WuXi AppTec Shanghai. SGLT2 cells were plated in 96-well cell culture plates (Greiner) and cultured overnight at 5% CO2, 37° C.
as §1
Termination buffer: 10 mM 4-hydroxyethylpiperazine ethanesulfonic acid (HEPES), 1.2 mM magnesium chloride (MgCl2), 4.7 mM potassium chloride (KCl), 2.2 mM calcium chloride (CaCl2), 120 mM sodium chloride (NaCl) and 1 μM LX4211.
The compounds were diluted with 100% dimethyl sulfoxide (DMSO) at a starting concentration of 10 μM, 8 points of 5-fold serial gradient dilution was made.
6 μM [^14C]-labeled methyl α-D-glucopyranoside was prepared with experimental buffer.
Cells were treated with 49 μL of experimental buffer, 1 μL of gradient-diluted compound, and 50 μL of 6 μM [^14C]-isotope-labeled glucose solution at 37° C. for 2 hours.
The liquid in the wells was aspirated and the cells were washed 3 times with termination buffer.
The cells were lysed with 50 μL of 10% sodium hydroxide solution, and the cell lysate was aspirated into a scintillation tube, and 2 mL of scintillation solution was added.
Readings were taken with an isotope detector (Tricarb).
The data were calculated by GraphPad Prism 5.0 software using the formula: log (inhibitor) vs. response—Variable slope to obtain the IC50 values of the tested compounds, and the experimental results are shown in Table 5.

[1] = biological target: recombinant human dipeptidyl peptidase 4 (rhDPP4) (Homo sapiens, UniProt P27487); experiment: rhDPP4 inhibitor screening experiment; format: biochemical; conditions: Gly-Pro-aminofluorescein substrate, 1 hour at room temperature
recombinant human dipeptidyl peptidase 4 (rhDPP4), sequence (P27487 whole entry): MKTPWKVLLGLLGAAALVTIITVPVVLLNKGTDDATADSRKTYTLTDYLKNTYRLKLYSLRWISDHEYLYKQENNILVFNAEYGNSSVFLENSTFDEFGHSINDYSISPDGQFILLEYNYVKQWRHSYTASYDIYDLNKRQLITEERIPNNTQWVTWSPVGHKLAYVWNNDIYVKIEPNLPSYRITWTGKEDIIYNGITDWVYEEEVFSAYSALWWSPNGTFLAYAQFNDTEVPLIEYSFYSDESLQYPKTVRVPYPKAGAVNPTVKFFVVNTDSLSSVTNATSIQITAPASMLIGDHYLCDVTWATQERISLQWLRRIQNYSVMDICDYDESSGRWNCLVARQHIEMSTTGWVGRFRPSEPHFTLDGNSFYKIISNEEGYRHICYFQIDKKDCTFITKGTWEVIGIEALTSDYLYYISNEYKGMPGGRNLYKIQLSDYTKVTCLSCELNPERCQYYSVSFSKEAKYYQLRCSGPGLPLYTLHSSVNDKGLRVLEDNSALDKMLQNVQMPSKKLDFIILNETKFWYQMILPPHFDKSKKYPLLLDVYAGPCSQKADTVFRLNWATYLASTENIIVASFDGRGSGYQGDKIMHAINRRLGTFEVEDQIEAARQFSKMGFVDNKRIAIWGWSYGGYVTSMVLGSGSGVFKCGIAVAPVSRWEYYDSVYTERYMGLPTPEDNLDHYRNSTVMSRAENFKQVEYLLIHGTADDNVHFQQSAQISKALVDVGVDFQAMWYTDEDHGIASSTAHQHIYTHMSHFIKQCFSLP
Excerpt: To evaluate the inhibitory activity of compounds against recombinant human dipeptidyl peptidase 4 (rhDPP4) by measuring the half-inhibitory concentration (IC50) values of the compounds. In the experiment, rhDPP4 was used to catalyze the generation of […] from substrate, the substrate was a luminescent precursor […], and the substrate and luciferase were reacted to generate a light signal, the intensity of the light signal was proportional to the enzyme activity.
• 1) The gradient diluted compounds (4-fold fold-dilution, 10 assay concentrations) were transferred 250 nL into a 384-well plate (PerkingElmer-6007299) using a non-contact nano-acoustic pipetting system (ECHO), and dimethyl sulfoxide (DMSO) concentration was 0.5% in the final reaction system. Blank control wells (containing DMSO, substrate and 10 mM Tris-HCl) and positive control wells (containing DMSO, substrate and rhDPP4) were set up. • 2) The pre-dispensed frozen buffer containing luciferase was removed and restored to room temperature, and then the substrate was added to configure a working solution with a substrate concentration of 20 μM. RhDPP4 was prepared as a working solution of 0.2 ng/mL using 10 mM Tris-HCl (pH 8.0) aqueous solution. • 3) 25 μL of working solution containing 20 μM substrate and 25 μL of working solution containing 0.2 ng/mL rhDPP4 were added to a 384-well plate with the addition of the compound, then the mixture was centrifuged for 30 s at 1000 rpm, the plate was sealed with aluminum foil sealing film and incubated for 1 hour at room temperature. • 4) The intensity of the light signal was detected by EnVision, a multifunctional microplate reader. The raw data were used to calculate the inhibition of rhDPP4 activity by the compound. % of inhibition activity=100−(compound well signal value−blank control well signal value)/(positive control well signal value−blank control well signal value)*100. • The percent of inhibition was imported into GraphPad Prism software for data processing to derive the corresponding dose-effect curves and to derive the IC50 values of the tested compounds.

IC50 (Human-SGLT1)	IC50 (Human-SGLT2)	IC50 [1]	Compound	OGTT blood glucose levels AUC0-2hr (SD Rat; glucose 2 g/kg)	Urinary glucose level (SD Rat; urine 0 to 24 hours)	Urine volume (SD Rat; urine 0 to 24 hours)
–	–	–	Cc1ccc([C@@H]2O[C@H](CO)[C@@H](O)[C@H](O)[C@H]2O)cc1Cc1ccc(-c2ccc(F)cc2)s1 [Canagliflozin, reference compound]	945 mmol/L/min	1317**** mg/200 gBW	24.4*** mL/200 gBW
33.3 nM	5.96 nM	166 nM	CS[C@H]1O[C@@H](c2cc(C)c(Cl)c(Cc3ccc(OC4CCN([C@H]5CO[C@H](c6cc(F)ccc6F)[C@@H](N)C5)C4)cc3)c2)[C@H](O)[C@@H](O)[C@@H]1O (some centres unmarked) [WX004]	–	–	–
521 nM	7.39 nM	–	CS[C@H]1O[C@@H](c2cc(Cc3ccc(O[C@@H]4CCN([C@H]5CO[C@H](c6cc(F)ccc6F)[C@@H](N)C5)C4)cc3)c(F)cc2C)[C@H](O)[C@@H](O)[C@@H]1O [WX008]	–	–	–
187 nM	4.84 nM	104 nM	CS[C@H]1O[C@@H](c2cc(Cc3ccc(O[C@@H]4CCN([C@H]5CO[C@H](c6cc(F)ccc6F)[C@@H](N)C5)C4)cc3)c(Cl)cc2C)[C@H](O)[C@@H](O)[C@@H]1O [WX002]	–	–	–
980 nM	332 nM	112 nM	CS[C@H]1O[C@@H](c2ccc(Cl)c(Cc3ccc(O[C@@H]4CCN([C@H]5CO[C@H](c6cc(F)ccc6F)[C@@H](N)C5)C4)cc3)c2C)[C@H](O)[C@@H](O)[C@@H]1O [WX003]	–	–	–
2070 nM	19.7 nM	32.5 nM	COc1cc(F)c(Cc2ccc(O[C@@H]3CCN([C@H]4CO[C@H](c5cc(F)ccc5F)[C@@H](N)C4)C3)cc2)cc1[C@@H]1O[C@H](SC)[C@@H](O)[C@H](O)[C@H]1O [WX007]	–	–	–
28.5 nM	5.05 nM	116 nM	CS[C@H]1O[C@@H](c2cccc(Cc3ccc(OC4CCN([C@H]5CO[C@H](c6cc(F)ccc6F)[C@@H](N)C5)C4)cc3)c2)[C@H](O)[C@@H](O)[C@@H]1O (some centres unmarked) [WX005]	–	–	–
